This is an account of results in patent publication US8124137B2, “Composition for prevention and/or treatment of tumors containing acacia bark derivative” (Mimozax Co., Ltd., priority 2006, dated 2012).

This test concerns mouse tumor MM46 breast cancer cells. Description: Tumor growth inhibition test in mice. The conditions noted are these: Positive Control group: 6.25 mg/kg intraperitoneally on days 7, 11 and 14. The test is classed as in vivo. On the procedure:
The required weighed amounts of Acacia Hot Water Extract No. 1 described in Production Example 2 were dispersed in water at 60° C. to prepare test drinks 1, 2 and 3 containing Acacia Hot Water Extract No. 1 at 7.8 mg/mL, 15.6 mg/mL and 31.3 mg/mL, respectively.
The required weighed amounts of Acacia Hot Water Extract No. 1 described in Production Example 2 were mixed with commercially available feed to prepare test feeds 2 and 3 containing Acacia Hot Water Extract No. 1 at 15.6 mg/g and 31.3 mg/g, respectively.
Female C3H/HeN mice were assigned to a Control 1 group, Test 1 group, Test 2 group, Test 3 group and Positive Control group as shown in the table below.
First, 2×10^6 mouse tumor MM46 breast cancer cells were transplanted subcutaneously into the inguinal region of the mice grouped as indicated above according to the method described in Abe, S. et al., Gann 73, 91-96 (1982) and Ohasi, K. et al., Yakugaku Zasshi 113, 396-399 (1993).
Tap water was given to the Control 1 group while Test Drinks 1 to 3 were given to the Test 1 to Test 3 groups, respectively, as drinking water, starting on the day of tumor transplantation. In addition, tap water was given to the Positive Control group, and this group was also intraperitoneally administered 6.25 mg/kg of lentinan on days 7, 11 and 14 following tumor transplantation.
Consequently, Test Drink 2 and Test Drink 3 were replaced with tap water on day 7 of tumor transplantation. In addition, five mice each of the Test 2 group were reassigned to a Control 2 group and a Test 2a group, while five mice each of the Test 3 group were reassigned to a Control 3 group and a Test 3a group. Animals of the Control 2 group and Control 3 group were continued to be fed the control feed. The Test 2a group and Test 3a group were fed Test Feed 2 and Test Feed 3, respectively, instead of the control feed.
Growth of the tumor transplanted subcutaneously into the inguinal regions of the mice was observed by palpation for 4 weeks every 3 or 4 days, and tumor diameter was also measured. In addition, survival times (days) and body weights were also measured. The tumors were excised and their wet weights were measured following completion of the test.
Furthermore, the Student's t-test was used for statistical testing.

As for lentinan, under “day 14 after transplantation”, the Average tumor diameter is on record as 7.4 ± 6.58 mm and the “reduction rate versus Control 1 group (average tumor diameter)” value is 43.5%. Further, for the setting “day 28 after transplantation”, the Average tumor diameter is reported as 14.0 ± 6.12 mm and the “reduction rate versus Control 1 group (average tumor diameter)” value is listed as 41.2%.
